One experiment deals with BTK kinase (Homo sapiens (Human), UniProt Q06187). Put plainly: Btk kinase enzymatic assay (HTRF). In kind it is biochemical. The following applies: ATP at Km. As to the method: Btk kinase activity was determined using a Homogeneous Time-Resolved Fluorescence (HTRF) methodology (Cisbio). […] The mixture was centrifuged and incubated for 5 min. […] For each compound, enzyme activity was measured at various concentrations of compound, and IC50s were obtained by GraFit Software 6.0 (Erithacus Software).
Sequence of BTK kinase (Q06187 whole entry): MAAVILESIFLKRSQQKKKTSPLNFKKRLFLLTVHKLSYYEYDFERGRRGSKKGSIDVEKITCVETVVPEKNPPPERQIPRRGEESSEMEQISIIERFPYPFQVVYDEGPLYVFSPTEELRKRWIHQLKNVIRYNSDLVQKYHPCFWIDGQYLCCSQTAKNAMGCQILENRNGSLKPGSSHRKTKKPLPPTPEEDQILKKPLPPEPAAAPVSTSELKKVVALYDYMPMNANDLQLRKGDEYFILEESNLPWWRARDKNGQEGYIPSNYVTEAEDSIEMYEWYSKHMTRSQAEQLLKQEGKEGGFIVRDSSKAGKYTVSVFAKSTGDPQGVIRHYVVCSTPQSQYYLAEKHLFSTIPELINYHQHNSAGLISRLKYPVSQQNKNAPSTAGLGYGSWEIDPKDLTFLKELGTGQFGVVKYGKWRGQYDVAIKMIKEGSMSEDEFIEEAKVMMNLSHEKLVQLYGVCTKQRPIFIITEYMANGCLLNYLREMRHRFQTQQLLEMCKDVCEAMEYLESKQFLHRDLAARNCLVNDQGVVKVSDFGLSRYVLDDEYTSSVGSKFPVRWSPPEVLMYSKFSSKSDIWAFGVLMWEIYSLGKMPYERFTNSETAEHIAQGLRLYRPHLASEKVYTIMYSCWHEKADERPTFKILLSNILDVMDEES
(Time-resolved FRET reads energy transfer from a long-lived donor to a nearby acceptor.)

For a further experiment, the system named is Ramos cells. Put plainly: BCR-induced calcium flux fluorescence-based assay in Ramos cells. The following applies: Ramos cells stimulated with goat anti-human IgM antibody; read-out: Ramos Cell Ca Flux IC50. Here is the method: Calcium flux fluorescence-based assays were performed using Fluo-4 Direct™ Calcium Assay Kits (purchased from Invitrogen) in a FlexStation III (purchased from Molecular Devices) according to manufacturer instructions. In brief, actively growing Romas cells in RPM1-1640 medium (purchased from Invitrogen) supplemented with 10% FBS (purchased from Hyclone) were washed and re-plated in low serum medium at approximately 1×10^5 cells per 45 μL per well in a 96-well plate (purchased from Corning), then added 45 μL of dye (purchased from Invitrogen) and incubated at 37 degree for 1 hour. Compounds to be assayed were dissolved and 3-fold serially diluted in DMSO and then diluted by 100 times in low serum medium. Then 10 μL of the diluted mixture were added to the above 96-well plate (final DMSO concentration was 0.1%) and incubated at 37 degree in 5% CO2 incubator for 0.5 hour. The compound-treated cells were stimulated with a goat anti-human IgM antibody (10 μg/ml; purchased from SouthernBiotech) and read in the FlexStation III using a λEx=494 nM and […] for 90 seconds. The relative fluorescence unit (RFU) and the IC50 were recorded and analyzed using a GraphPad Prism 5 (GraphPad Software).

The structures appear in SMILES notation. A value given as a limit tells only on which side of the number the result lay.

The IC50 is the concentration needed to halve the response being measured. As to `C=CC(=O)N1CCCC(n2nc(-c3ccc(Oc4ccccc4)cc3)c(C(N)=S)c2N)C1` (stereo not drawn) [Example 37, 1-(1-acryloylpiperidin-3-yl)-5-amino-3-(4-phenoxyphenyl)-1H-pyrazole-4-carbothioamide], the IC50 at BTK kinase and in the experiment on Ramos cells was less than 100 nM each time.

Consider `C=CC(=O)N1CC[C@@H](n2nc(-c3ccc(Oc4ccccc4)cc3)c(C(N)=O)c2N)C1` [25 (R-isomer)], for which the IC50 on BTK kinase and in the experiment on Ramos cells was less than 100 nM throughout.

Consider `C#CC(=O)N1CCCC(n2nc(-c3ccc(Oc4ccccc4)cc3)c(C(N)=O)c2N)C1` (stereo not drawn) [Example 26, 5-amino-3-(4-phenoxyphenyl)-1-(1-propioloylpiperidin-3-yl)-1H-pyrazole-4-carboxamide], for which the IC50 against BTK kinase and in the experiment on Ramos cells was less than 100 nM each time.

As for `C=CC(=O)N1CC[C@@H](n2nc(-c3ccc(Oc4cccc(C(F)(F)F)c4)cc3)c(C(N)=O)c2N)C1` [Example 44, (R)-1-(1-acryloylpyrrolidin-3-yl)-5-amino-3-(4-(3-(trifluoromethyl)phenoxy)phenyl)-1H-pyrazole-4-carboxamide], the IC50 against BTK kinase and in the experiment with Ramos cells was less than 100 nM in each case.

Consider `C=CC(=O)N(C)CCn1nc(-c2ccc(Oc3ccccc3)cc2)c(C(N)=O)c1N` [Example 30, 5-amino-1-(2-(N-methylacrylamido)ethyl)-3-(4-phenoxyphenyl)-1H-pyrazole-4-carboxamide], for which the IC50 at BTK kinase and in the experiment on Ramos cells was less than 100 nM each time.

Turning to `C=CS(=O)(=O)N1CCC[C@@H](n2nc(-c3ccc(Oc4ccccc4)cc3)c(C(N)=O)c2N)C1` [27 (R-isomer)], the IC50 against BTK kinase and in the experiment on Ramos cells was less than 100 nM each time.

These data come from patent US9926299B2, “Inhibitors of bruton's tyrosine kinase” (Centaurus BioPharma Co., Ltd., priority 2012, dated 2018).
